Experimental data: patent US20240043427A1 (Gilead Sciences, Inc., priority 2020, published 2024)

Target: CD73 (Homo sapiens (Human), UniProt P21589)
Type: biochemical
Conditions: 1 mM NaH2PO4 in enzyme buffer, CD73 0.3 nM, AMP 15 uM

Sequence of CD73 (P21589 27-574): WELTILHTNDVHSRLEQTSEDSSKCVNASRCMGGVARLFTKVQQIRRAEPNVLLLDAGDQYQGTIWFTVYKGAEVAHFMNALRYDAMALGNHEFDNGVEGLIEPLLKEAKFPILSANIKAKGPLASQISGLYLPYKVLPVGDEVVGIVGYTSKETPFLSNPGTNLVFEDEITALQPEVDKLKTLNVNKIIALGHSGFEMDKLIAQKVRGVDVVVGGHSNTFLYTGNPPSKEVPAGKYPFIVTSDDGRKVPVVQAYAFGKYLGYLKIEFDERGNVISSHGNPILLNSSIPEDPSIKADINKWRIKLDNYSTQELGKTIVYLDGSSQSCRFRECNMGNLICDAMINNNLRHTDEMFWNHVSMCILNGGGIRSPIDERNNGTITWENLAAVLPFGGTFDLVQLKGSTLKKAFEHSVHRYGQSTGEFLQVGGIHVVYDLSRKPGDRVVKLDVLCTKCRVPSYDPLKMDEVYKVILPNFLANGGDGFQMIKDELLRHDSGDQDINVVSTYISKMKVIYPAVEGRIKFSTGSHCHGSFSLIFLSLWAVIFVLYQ

| Structure (SMILES) | IC50 [nM] |
| --- | --- |
| O=c1[nH]cc(-c2cc([C@H]3C[C@@H]3c3ccc4c(c3)OC(F)(F)O4)c3ncc(F)n3n2)c(=O)[nH]1 (racemic) [Example 278, 5-(8-((1S,2S)-2-(2,2-difluorobenzo[d][1,3]dioxol-5-yl)cyclopropyl)-3-fluoroimidazo[1,2-b]pyridazin-6-yl)pyrimidine-2,4(1H,3H)-dione] | 3.69 |
| O=c1[nH]cc(-c2cc([C@H]3C[C@@H]3c3ccc(OC(F)(F)F)cc3F)c3nccn3n2)c(=O)[nH]1 (racemic) [Example 280, 5-(8-((1S,2S)-2-(2-fluoro-4-(trifluoromethoxy)phenyl)cyclopropyl)imidazo[1,2-b]pyridazin-6-yl)pyrimidine-2,4(1H,3H)-dione] | 5.97 |
| CN(C)C(=O)c1cccc([C@H]2C[C@@H]2c2cc(-c3c[nH]c(=O)[nH]c3=O)nn3ccnc23)c1 (racemic) [Example 287, 3-((1S,2S)-2-(6-(2,4-dioxo-1,2,3,4-tetrahydropyrimidin-5-yl)imidazo[1,2-b]pyridazin-8-yl)cyclopropyl)-N,N-dimethylbenzamide] | 3.9 |
| CN(C)C(=O)c1ccc([C@H]2C[C@@H]2c2cc(-c3c[nH]c(=O)[nH]c3=O)nn3ccnc23)cc1 (racemic) [Example 288, 4-((1S,2S)-2-(6-(2,4-dioxo-1,2,3,4-tetrahydropyrimidin-5-yl)imidazo[1,2-b]pyridazin-8-yl)cyclopropyl)-N,N-dimethylbenzamide] | 6.86 |
| O=C(c1ccc([C@H]2C[C@@H]2c2cc(-c3c[nH]c(=O)[nH]c3=O)nn3ccnc23)cc1)N1CCC1 (racemic) [Example 289, 5-(8-((1S,2S)-2-(4-(azetidine-1-carbonyl)phenyl)cyclopropyl)imidazo[1,2-b]pyridazin-6-yl)pyrimidine-2,4(1H,3H)-dione] | 2.27 |
| CC1CN(C(=O)c2ccc([C@H]3C[C@@H]3c3cc(-c4c[nH]c(=O)[nH]c4=O)nn4ccnc34)cc2)C1 (racemic) [Example 290, 5-(8-((1S,2S)-2-(4-(3-methylazetidine-1-carbonyl)phenyl)cyclopropyl)imidazo[1,2-b]pyridazin-6-yl)pyrimidine-2,4(1H,3H)-dione] | 3.46 |
| CC1(C)CN(C(=O)c2ccc([C@H]3C[C@@H]3c3cc(-c4c[nH]c(=O)[nH]c4=O)nn4ccnc34)cc2)C1 (racemic) [Example 293, 5-(8-((1S,2S)-2-(4-(3,3-dimethylazetidine-1-carbonyl)phenyl)cyclopropyl)imidazo[1,2-b]pyridazin-6-yl)pyrimidine-2,4(1H,3H)-dione] | 4.75 |
| CC1(C)CN(C(=O)c2cccc([C@H]3C[C@@H]3c3cc(-c4c[nH]c(=O)[nH]c4=O)nn4ccnc34)c2)C1 (racemic) [Example 298, 5-(8-((1S,2S)-2-(3-(3,3-dimethylazetidine-1-carbonyl)phenyl)cyclopropyl)imidazo[1,2-b]pyridazin-6-yl)pyrimidine-2,4(1H,3H)-dione] | 3.78 |
| O=C(c1ccc([C@H]2C[C@@H]2c2cc(-c3c[nH]c(=O)[nH]c3=O)nn3ccnc23)cc1)N1C[C@@H](F)[C@H](F)C1 (racemic) [Example 299, 5-(8-((1S,2S)-2-(4-((3R,4R)-3,4-difluoropyrrolidine-1-carbonyl)phenyl)cyclopropyl)imidazo[1,2-b]pyridazin-6-yl)pyrimidine-2,4(1H,3H)-dione] | 7.85 |
| O=C(c1ccc([C@H]2C[C@@H]2c2cc(-c3c[nH]c(=O)[nH]c3=O)nn3ccnc23)cc1)N1C[C@@H](F)[C@@H](F)C1 (racemic) [Example 301, 5-(8-((1S,2S)-2-(4-((3S,4R)-3,4-difluoropyrrolidine-1-carbonyl)phenyl)cyclopropyl)imidazo[1,2-b]pyridazin-6-yl)pyrimidine-2,4(1H,3H)-dione] | 4.45 |
| O=C(c1ccc([C@H]2C[C@@H]2c2cc(-c3c[nH]c(=O)[nH]c3=O)nn3ccnc23)cc1)N1CC(F)(F)C(F)(F)C1 (racemic) [Example 303, 5-(8-((1S,2S)-2-(4-(3,3,4,4-tetrafluoropyrrolidine-1-carbonyl)phenyl)cyclopropyl)imidazo[1,2-b]pyridazin-6-yl)pyrimidine-2,4(1H,3H)-dione] | 7.74 |
| O=C(c1cccc([C@H]2C[C@@H]2c2cc(-c3c[nH]c(=O)[nH]c3=O)nn3ccnc23)c1)N1CC(F)(F)C(F)(F)C1 (racemic) [Example 304, 5-(8-((1S,2S)-2-(3-(3,3,4,4-tetrafluoropyrrolidine-1-carbonyl)phenyl)cyclopropyl)imidazo[1,2-b]pyridazin-6-yl)pyrimidine-2,4(1H,3H)-dione] | 3.59 |
| O=C(c1ccc([C@H]2C[C@@H]2c2cc(-c3c[nH]c(=O)[nH]c3=O)nn3ccnc23)cc1)N1CCC(F)(F)C1 (racemic) [Example 305, 5-(8-((1S,2S)-2-(4-(3,3-difluoropyrrolidine-1-carbonyl)phenyl)cyclopropyl)imidazo[1,2-b]pyridazin-6-yl)pyrimidine-2,4(1H,3H)-dione] | 4.81 |

Now from value to compound:

| IC50 [nM] | Structure (SMILES) |
| --- | --- |
| 0.91 | O=c1[nH]cc(-c2cc([C@H]3C[C@@H]3c3ccc4ncsc4c3)c3nccn3n2)c(=O)[nH]1 (racemic) [Example 276, 5-(8-((1S,2S)-2-(benzo[d]thiazol-6-yl)cyclopropyl)imidazo[1,2-b]pyridazin-6-yl)pyrimidine-2,4(1H,3H)-dione] |
| 1.54 | COC(=O)c1ccc([C@H]2C[C@@H]2c2cc(-c3c[nH]c(=O)[nH]c3=O)nn3ccnc23)cc1 (racemic) [Example 281, methyl 4-((1S,2S)-2-(6-(2,4-dioxo-1,2,3,4-tetrahydropyrimidin-5-yl)imidazo[1,2-b]pyridazin-8-yl)cyclopropyl)benzoate] |
| 1.81 | COC(=O)c1cccc([C@H]2C[C@@H]2c2cc(-c3c[nH]c(=O)[nH]c3=O)nn3ccnc23)c1 (racemic) [Example 282, methyl 3-((1S,2S)-2-(6-(2,4-dioxo-1,2,3,4-tetrahydropyrimidin-5-yl)imidazo[1,2-b]pyridazin-8-yl)cyclopropyl)benzoate] |
| 1.07 | NC(=O)c1cccc([C@H]2C[C@@H]2c2cc(-c3c[nH]c(=O)[nH]c3=O)nn3ccnc23)c1 (racemic) [Example 284, 3-((1S,2S)-2-(6-(2,4-dioxo-1,2,3,4-tetrahydropyrimidin-5-yl)imidazo[1,2-b]pyridazin-8-yl)cyclopropyl)benzamide] |
| 1.42 | CNC(=O)c1ccc([C@H]2C[C@@H]2c2cc(-c3c[nH]c(=O)[nH]c3=O)nn3ccnc23)cc1 (racemic) [Example 285, 4-((1S,2S)-2-(6-(2,4-dioxo-1,2,3,4-tetrahydropyrimidin-5-yl)imidazo[1,2-b]pyridazin-8-yl)cyclopropyl)-N-methylbenzamide] |
| 1.19 | CNC(=O)c1cccc([C@H]2C[C@@H]2c2cc(-c3c[nH]c(=O)[nH]c3=O)nn3ccnc23)c1 (racemic) [Example 286, 3-((1S,2S)-2-(6-(2,4-dioxo-1,2,3,4-tetrahydropyrimidin-5-yl)imidazo[1,2-b]pyridazin-8-yl)cyclopropyl)-N-methylbenzamide] |
| 3.25 | O=C(c1ccc([C@H]2C[C@@H]2c2cc(-c3c[nH]c(=O)[nH]c3=O)nn3ccnc23)cc1)N1CC(C(F)(F)F)C1 (racemic) [Example 291, 5-(8-((1S,2S)-2-(4-(3-(trifluoromethyl)azetidine-1-carbonyl)phenyl)cyclopropyl)imidazo[1,2-b]pyridazin-6-yl)pyrimidine-2,4(1H,3H)-dione] |
| 2.08 | O=C(c1ccc([C@H]2C[C@@H]2c2cc(-c3c[nH]c(=O)[nH]c3=O)nn3ccnc23)cc1)N1CC(F)(F)C1 (racemic) [Example 292, 5-(8-((1S,2S)-2-(4-(3,3-difluoroazetidine-1-carbonyl)phenyl)cyclopropyl)imidazo[1,2-b]pyridazin-6-yl)pyrimidine-2,4(1H,3H)-dione] |
| 1.02 | O=C(c1cccc([C@H]2C[C@@H]2c2cc(-c3c[nH]c(=O)[nH]c3=O)nn3ccnc23)c1)N1CCC1 (racemic) [Example 294, 5-(8-((1S,2S)-2-(3-(azetidine-1-carbonyl)phenyl)cyclopropyl)imidazo[1,2-b]pyridazin-6-yl)pyrimidine-2,4(1H,3H)-dione] |
| 1.92 | CC1CN(C(=O)c2cccc([C@H]3C[C@@H]3c3cc(-c4c[nH]c(=O)[nH]c4=O)nn4ccnc34)c2)C1 (racemic) [Example 295, 5-(8-((1S,2S)-2-(3-(3-methylazetidine-1-carbonyl)phenyl)cyclopropyl)imidazo[1,2-b]pyridazin-6-yl)pyrimidine-2,4(1H,3H)-dione] |
| 2.14 | O=C(c1cccc([C@H]2C[C@@H]2c2cc(-c3c[nH]c(=O)[nH]c3=O)nn3ccnc23)c1)N1CC(C(F)(F)F)C1 (racemic) [Example 296, 5-(8-((1S,2S)-2-(3-(3-(trifluoromethyl)azetidine-1-carbonyl)phenyl)cyclopropyl)imidazo[1,2-b]pyridazin-6-yl)pyrimidine-2,4(1H,3H)-dione] |
| 1.51 | O=C(c1cccc([C@H]2C[C@@H]2c2cc(-c3c[nH]c(=O)[nH]c3=O)nn3ccnc23)c1)N1CC(F)(F)C1 (racemic) [Example 297, 5-(8-((1S,2S)-2-(3-(3,3-difluoroazetidine-1-carbonyl)phenyl)cyclopropyl)imidazo[1,2-b]pyridazin-6-yl)pyrimidine-2,4(1H,3H)-dione] |
| 1.8 | O=C(c1cccc([C@H]2C[C@@H]2c2cc(-c3c[nH]c(=O)[nH]c3=O)nn3ccnc23)c1)N1C[C@@H](F)[C@H](F)C1 (racemic) [Example 300, 5-(8-((1S,2S)-2-(3-((3R,4R)-3,4-difluoropyrrolidine-1-carbonyl)phenyl)cyclopropyl)imidazo[1,2-b]pyridazin-6-yl)pyrimidine-2,4(1H,3H)-dione] |
| 3.08 | O=C(c1cccc([C@H]2C[C@@H]2c2cc(-c3c[nH]c(=O)[nH]c3=O)nn3ccnc23)c1)N1C[C@@H](F)[C@@H](F)C1 (racemic) [Example 302, 5-(8-((1S,2S)-2-(3-((3S,4R)-3,4-difluoropyrrolidine-1-carbonyl)phenyl)cyclopropyl)imidazo[1,2-b]pyridazin-6-yl)pyrimidine-2,4(1H,3H)-dione] |
